In patent US8858995B2, “Methods and compositions for controlled delivery of phytochemical agents” (priority 2008, dated 2014):

What was measured:
[1] = Effect of phytochemical agent load on in vitro release; assay type: physicochemical; settings: curcumin 2, 5, 20% w/w, GTPs 1, 2.5, 5, 10% w/w
Procedure: The medium was replaced daily and the amount of curcumin released from each composition per day was measured spectrophotometrically against a standard curve and expressed as μg/day. A similar experiment was also performed to examine the effect of incorporating various amounts of GTPs into a biocompatible polymeric matrix on the in vitro release of the agents.

[2] = In vitro release of curcumin from device for cervical insertion; assay type: physicochemical; settings: after approximately 5 days in release medium; 18 days release period
Procedure: The medium was replaced daily and the amount of curcumin released from the compositions per day was measured spectrophotometrically against a standard curve and expressed as micrograms per day.

[3] = In vitro release of curcumin from PCL-121K:PEG-8K (65:35) implants; assay type: physicochemical
Procedure: Both solutions were then mixed together to prepare a homogenous solution of drug and polymers. The solvents were evaporated on a water bath maintained at 65° C. followed by overnight drying under vacuum at 65° C. to remove residual solvents to prepare an amorphous molecular dispersion of drug in polymer. The dried molten polymer was then extruded through silastic tubing mold (internal diameter 3.4 mm) attached to a syringe. After a few minutes, the cylindrical implants were removed from the tubing and excised into desired lengths (2.0 cm, 200 mg containing 40 mg drug) and stored at −20° C. under argon until used.
PBS was supplemented with BCS (10% v/v) to mimic extracellular fluid composition and to simulate the in vivo situation. Amber-colored vials (n=3) containing a 2-cm implant each were incubated at 37±0.5° C. in a reciprocating (150 rpm) shaker water bath (Julabo S W23, Seelbach, Germany), and the release medium was changed after every 24 h.

[4] = In vivo release of curcumin from PCL-121K:PEG-8K implants (residual content); design: species or system ACI rats
From the text: The in vivo cumulative release was studied in female Augustus Copenhagen Irish (ACI) rats following an approved protocol from an Institutional Animal Care and Use Committee (IACUC). […] All the animals were provided food and water ad libitum. Sham and curcumin implants were subcutaneously grafted at the back of the rats and were monitored for their diet intake and body weight. Animals were euthanized at different time intervals by asphyxiation to collect blood, liver, brain, local tissues and implants. All the tissues were snap frozen in liquid nitrogen and stored at −80° C. until further analysis.
Initial and residual curcumin content in the implants was also analyzed to determine the cumulative drug release. Implants recovered from animals were dissolved in 5 ml dichloromethane. […] The solution was then diluted suitably (400-fold) with ethanol.
where T1, T2, T3, . . . Tn are different time intervals.

CYP3A4 = CYP3A4 activity in hepatic microsomes; assay type: in vivo, ACI rats
Procedure: To evaluate the xenobiotic-metabolizing enzymes, liver samples from the animals (approximately 100 mg) were homogenized in 0.25 M sucrose buffer (pH 7.4) at 3000 rpm with Polytron. The homogenate was centrifuged at 3000 g for 20 min at 4° C. to separate the nuclear content, and the supernatant was then collected and again centrifuged at 11,000 g for 20 min at 4° C. to separate the mitochondria. The post-mitochondrial supernatant was then transferred to ultracentrifuge tubes and finally centrifuged at 100,000 g for 1 h at 4° C. to separate the microsomes. The pellet was suspended in 1 ml sucrose buffer, aliquoted and stored at −80° C. until use.

[5] = Safety and biocompatibility of curcumin implants; assay type: in vivo; settings: curcumin doses administered by the implants; at least 3 months
From the text: As such, the further study was designed in continuation to above-described experiments (i) to analyze the in vivo release from these implants, (ii) to compare the tissue distribution of curcumin delivered via these implants with curcumin delivered via diet, and finally (iii) to compare the efficacy of curcumin delivered via both routes.

[6] = In vitro release from coated (and extruded) polymeric implants; assay type: physicochemical; settings: 37° C., no serum
Procedure: To formulate the “coated” polymeric implants, blank P-80 implants (1.4 mm dia) were then prepared by dissolving P-80:F68 (9:1) in dichloromethane, followed by evaporation of the solvent in a Petri dish under hood and extrusion of the molten polymer through a silastic tubing mold, similar to the methodologies described herein above. […] For coating, one end of the blank implant (2.5-3.5 cm) was inserted into a silastic tube plug (6 mm long, 1.4 mm dia) while the other end of the plug was attached with a pipet tip. Coatings were then added by dipping the blank implant into the solution with intermittent drying with cool air using a commercial hair dryer and placing them under hood. […] The assembly was placed under hood overnight to remove the residual DCM, implants were excised in 1 or 2 cm lengths and stored in amber vials under argon at -20° C. until used. The rate of in vitro release for the implants was subsequently measured. […] The vials were placed in a water bath (Julabo S W 23, Seelback, Germany) at 37° C. with constant agitation at 110 rpm. The medium was changed every 24 h.

[7] = mouse, sc
Procedure: (§1) To assess the coated implants (i.e., where the compositions were in the form of coatings), in vivo studies were also performed. […] All groups of animals were also treated with dibenzo[a,I]pyrene (DBP) via polymeric implants (1-cm, 1.4 mm dia, 5% DBP load) at the same time. Implants were grafted subcutaneously, and animal were euthanized after 3 weeks. […] In both cases, animals were euthanized by CO2 asphyxiation and selected tissues (lung, liver and brain) were collected and stored at −80° C. until processing. Implants were also recovered, dried under vacuum and stored in amber vials under argon at 4° C. until analysis.
The supernatants were diluted with ethanol:DCM (80:20) and their concentrations were measured spectrophotometrically at maximal absorbance and the concentrations were calculated against standard curves of individual compounds.

DBP-DNA adducts = experiment: Dibenzo[a,I]pyrene (DBP)-DNA adducts in lung (32P-postlabeling); assay type: in vivo, A/J mice; settings: two 1.5 cm coated implants; DBP implant; 3 weeks
Procedure: as §1
To analyze the formation of DNA adducts, DNA was isolated from lung tissue (200 mg) by treatment of the isolated crude nuclei with RNases and proteinase K, followed by extractions with phenol, phenol:Sevag and Sevag. DNA was recovered by ethanol precipitation and its concentration was measured spectrophotometrically considering 1 A260 equals 50 μg DNA. DNA adducts were analyzed by nuclease P1-mediated ^32P-postlabeling/TLC assay and expressed as adducts per 10^9 nucleotides.

[8] = system: B[a]P-induced DNA adducts
[9] = curcumin implants, B[a]P implant 1 cm, 10 mg, 30 days post B[a]P
[10] = curcumin implants, sustained low dose B[a]P, 30 days

COc1cc(/C=C/C(=O)CC(=O)/C=C/c2ccc(O)c(OC)c2)ccc1O [curcumin]
amount released per day and total amount released versus amount incorporated [1]: varied proportionally | amount of curcumin released per day from device [2]: decreased and approached lower steady-state levels | curcumin release after 1 week [3]: approximately 200 μg/day | curcumin release after 31 days [3]: approximately 120 μg/day | curcumin release on day 2 [3]: approximately 390 μg | cumulative release after 1 month ([3]; 40 mg per implant): approximately 15 % of total agent load | curcumin release on day 1 ([3]; 2-cm implant, 40 mg): approximately 570 μg | in vivo burst release on day 1 ([4]; 2-cm implant, 40 mg, s.c.): approximately 1800 μg | curcumin released after 1 day of implantation ([4]; from weight loss studies): 1.8 mg | curcumin delivered by both the implants combined ([4]; over 90 days, versus around 900 mg by diet): 38 mg | cumulative in vivo release after 1 month ([4]; rat, in vivo): approximately 30% | in vivo drug release after 3 months ([4]; rat, in vivo): approximately 130 μg/day | in vivo drug release over a period of 1 month ([4]; rat, in vivo): 300 to 350 µg/day | in vivo release on day 4 ([4]; rat, in vivo): approximately 380 μg | CYP3A4 activity (CYP3A4; curcumin diet, 12 days): reduced to basal levels | CYP3A4 activity compared to untreated animals (CYP3A4; curcumin diet, after 4 days): significant higher | CYP3A4 activity (CYP3A4; curcumin diet, day 1): slightly higher activity | increase in CYP3A4 activity compared with sham implants (CYP3A4; curcumin implants): became significant only after 25 days | CYP3A4 activity (CYP3A4; curcumin implants, after 3 months): remained consistently upregualated | liver and kidney function [5]: did not induce any biochemical changes in liver and kidney function | release in PBS alone [6]: essentially no release | total release in vivo at the end of 3 weeks [7]: 19.9% | lung DBP-DNA adduct levels (DBP-DNA adducts): virtually no effect | B[a]P-induced DNA adducts in liver and lung versus sham implant ([8]; 1 cm matrix 20% w/w curcumin, B[a]P implant, 30 days): inhibited the B[a]P-induced DNA adducts in both the liver and lung | inhibition of adducts, liver [8, 9]: 83% | inhibition of adducts, lung [8, 9]: 65% | DNA adduct level, liver [8, 10]: 4±0.7 adducts/10^9 nucleotides | DNA adduct level, lung [8, 10]: 9±5 adducts/10^9 nucleotides
